Numbers after ± are expanded uncertainties.
Test: mn = molality of the nth substance listed, in mol/kg
Settings: Liquid; for viscosity: Falling or rolling sphere viscometry; for electrical conductivity: Frequency=0.0003 MHz, Alternating current cell with electrodes; for mass density: Vibrating tube method

NCC(=O)O [2-aminoacetic acid] + O
87 kPa
Settings	electrical conductivity, m1 = 0.1 [S/m]	electrical conductivity, m1 = 0.3 [S/m]	electrical conductivity, m1 = 0.5 [S/m]	mass density, m1 = 0.1 [kg/m3]	mass density, m1 = 0.3 [kg/m3]	mass density, m1 = 0.5 [kg/m3]	viscosity, m1 = 0.1 [mPa·s]	viscosity, m1 = 0.3 [mPa·s]	viscosity, m1 = 0.5 [mPa·s]
288.15 K	0.000925 ± 0.00014	0.00227 ± 0.00014	0.00355 ± 0.00014	1002.42 ± 1.4	1008.66 ± 1.4	1014.9 ± 1.4	1.144 ± 0.031	1.176 ± 0.031	1.208 ± 0.031
298.15 K	0.000963 ± 0.00014	0.00239 ± 0.00014	0.00381 ± 0.00014	1000.23 ± 1.4	1006.29 ± 1.4	1012.35 ± 1.4	0.924 ± 0.031	0.95 ± 0.031	0.984 ± 0.031
308.15 K	0.00101 ± 0.00014	0.00253 ± 0.00014	0.0041 ± 0.00014	–	1003.23 ± 1.4	1009.25 ± 1.4	0.729 ± 0.03	0.749 ± 0.03	0.77 ± 0.031
318.15 K	0.00106 ± 0.00014	0.00269 ± 0.00014	0.00445 ± 0.00014	993.28 ± 1.4	999.24 ± 1.4	1005.2 ± 1.4	0.613 ± 0.03	0.638 ± 0.03	0.662 ± 0.03

C[C@H](N)C(=O)O [(S)-2-aminopropanoic acid] + O
Settings	electrical conductivity, m1 = 0.1 [S/m]	electrical conductivity, m1 = 0.3 [S/m]	electrical conductivity, m1 = 0.5 [S/m]	mass density, m1 = 0.1 [kg/m3]	mass density, m1 = 0.3 [kg/m3]	mass density, m1 = 0.5 [kg/m3]	viscosity, m1 = 0.1 [mPa·s]	viscosity, m1 = 0.3 [mPa·s]	viscosity, m1 = 0.5 [mPa·s]
288.15 K, 87 kPa	0.000237 ± 0.00014	0.000567 ± 0.00014	0.000861 ± 0.00014	–	–	–	–	–	–
288.15 K, 100 kPa	–	–	–	1002.1 ± 1.4	1007.7 ± 1.4	1013.3 ± 1.4	1.16 ± 0.031	1.223 ± 0.031	1.286 ± 0.031
298.15 K, 87 kPa	0.000293 ± 0.00014	0.000659 ± 0.00014	0.000968 ± 0.00014	–	–	–	–	–	–
298.15 K, 100 kPa	–	–	–	999.97 ± 1.4	1005.51 ± 1.4	1011.05 ± 1.4	0.91 ± 0.031	0.955 ± 0.031	1.001 ± 0.031
308.15 K, 87 kPa	0.000357 ± 0.00014	0.000783 ± 0.00014	0.00117 ± 0.00014	–	–	–	–	–	–
308.15 K, 100 kPa	–	–	–	996.94 ± 1.4	1002.42 ± 1.4	1007.9 ± 1.4	0.738 ± 0.03	0.774 ± 0.031	0.809 ± 0.031
318.15 K, 87 kPa	0.000441 ± 0.00014	0.000946 ± 0.00014	0.00141 ± 0.00014	–	–	–	–	–	–
318.15 K, 100 kPa	–	–	–	993.09 ± 1.4	998.47 ± 1.4	1003.85 ± 1.4	0.613 ± 0.03	0.649 ± 0.031	0.685 ± 0.03
